Patent US9096825B2, “7 α-hydroxysteroid dehydrogenase knockout mutants and use therefor” (Pharmazell GmbH, priority 2010, dated 2015)

Key:
[1] = test system: E. coli BL21(DE3); assay: Incubation of cholic acid with E. coli culture, HPLC detection of the oxidation product; format: cell-based; details: 20 mM cholic acid added to 5 ml of culture
[2] = test system: E. coli BL21(DE3) Δ7α-HSDH; assay: Incubation of cholic acid with knockout strain culture, HPLC detection of the oxidation product; format: cell-based; details: 20 mM cholic acid added to 5 ml of culture
[3] = target: T1, 7β-HSDH obtainable from Collinsella aerofaciens DSM 3979 (Collinsella aerofaciens, UniProt A4ECA9); assay: Kinetic parameters of 7β-HSDH for substrates/cofactors
T1 sequence (A4ECA9 1-263): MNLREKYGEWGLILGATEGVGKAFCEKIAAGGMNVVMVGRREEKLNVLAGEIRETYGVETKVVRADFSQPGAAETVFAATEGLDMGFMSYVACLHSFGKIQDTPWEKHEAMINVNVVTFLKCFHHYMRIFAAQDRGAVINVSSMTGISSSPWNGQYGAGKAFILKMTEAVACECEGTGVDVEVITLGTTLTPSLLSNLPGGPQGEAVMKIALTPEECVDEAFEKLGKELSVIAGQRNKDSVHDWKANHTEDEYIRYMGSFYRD

[4] = substrate: C[C@H](CCC(=O)O)[C@H]1CC[C@H]2[C@@H]3[C@@H](O)C[C@@H]4C[C@H](O)CC[C@]4(C)[C@H]3CC[C@]12C; assay: purified protein, by the assay type; details: other: substrate/cofactor of 7β-HSDH
[5] = substrate: C[C@H](CCC(=O)O)[C@H]1CC[C@H]2[C@@H]3C(=O)C[C@@H]4CC(=O)CC[C@]4(C)[C@H]3CC(=O)[C@]12C; assay: purified protein, by the assay type; details: other: substrate/cofactor of 7β-HSDH

C[C@H](CCC(=O)O)[C@H]1CC[C@H]2[C@@H]3[C@H](O)C[C@@H]4C[C@H](O)CC[C@]4(C)[C@H]3C[C@H](O)[C@]12C [cholic acid, Cholic acid]
7α-HSDH activity against cholic acid (oxidation to 7-keto-3,12-dihydroxycholanic acid) [1]: clearly showed 7α-HSDH activity
oxidation product 7-keto-3,12-dihydroxycholanic acid detected by HPLC [2]: No oxidation product

C[C@H](CCC(=O)O)[C@H]1CC[C@H]2[C@@H]3C(=O)C[C@@H]4C[C@H](O)CC[C@]4(C)[C@H]3CC[C@]12C [7-keto-LCA, 7-Ketolithocholic acid]
kcat [3]: 950.77 1 μmol/(μmol × min)
Vmax ([3]; 1 U = 1 μmol/min): 30.77 U/mg protein

B1: 7β-HSDH obtainable from Collinsella aerofaciens DSM 3979 (Collinsella aerofaciens ATCC 25986) (protein)
chain: T1 sequence (A4ECA9 1-263)
Km [4]: 6.23 µM
Vmax [4]: 38.2 µmol/min/mg
Km [5]: 9.23 µM
Vmax [5]: 28.3 µmol/min/mg
